One series addresses T1, Human MAO-B (Homo sapiens, UniProt P27338).
T1 construct: purchased Merck KGaA (Darmstadt, Germany)
T1 sequence (P27338 1-520): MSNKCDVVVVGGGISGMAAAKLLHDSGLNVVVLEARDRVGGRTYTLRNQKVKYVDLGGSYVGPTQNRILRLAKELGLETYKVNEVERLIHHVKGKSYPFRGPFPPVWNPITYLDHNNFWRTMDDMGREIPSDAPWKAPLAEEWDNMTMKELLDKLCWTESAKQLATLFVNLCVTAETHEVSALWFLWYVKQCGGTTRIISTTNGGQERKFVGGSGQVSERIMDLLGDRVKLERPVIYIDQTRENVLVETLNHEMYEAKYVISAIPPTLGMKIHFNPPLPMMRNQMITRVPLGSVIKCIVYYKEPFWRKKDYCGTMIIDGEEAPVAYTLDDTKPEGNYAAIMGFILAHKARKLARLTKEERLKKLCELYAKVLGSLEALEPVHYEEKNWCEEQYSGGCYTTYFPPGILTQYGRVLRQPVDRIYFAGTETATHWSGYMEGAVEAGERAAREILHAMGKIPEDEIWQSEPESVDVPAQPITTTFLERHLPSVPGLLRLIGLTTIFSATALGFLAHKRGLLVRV
Nature of the series: MAO-B inhibition, Amplex Red Monoamine Oxidase kit. The format is biochemical. Conditions: 1 µM compound; % of full inhibition (pargyline 10 µM). How it is done:
Human MAO-B was purchased from Merck KGaA (Darmstadt, Germany). The activity of compound 1 and 8 was measured in the presence of p-tyramine (200 μM). […] Firstly, inhibitors’ activity was measured in a concentration of 1 μM. […] For compounds that inhibited the enzyme by more than 50% further studies were conducted to obtain IC50 from concentration–response curves. All calculations were made in Microsoft Excel and GraphPadPrism software. All experiments were performed in duplicate and data are expressed as mean ± SEM.

Series [1] is described as follows: ferric reducing antioxidant power (FRAP) assay. Conditions: % of ascorbic acid activity; compounds and AA at 1 mM. Here is the method: The total antioxidant potential of aryl-substituted phenylalanine derivatives was determined using FRAP assay. The FRAP reagent was prepared first by mixing acetate buffer (300 mM, pH 3.6), a solution of 10 mM TPTZ (2,4,6-tripyridyl-s-triazine, Sigma-Aldrich, Inc., St. Louis, MO, USA) in 40 mM HCl and 20 mM of iron (III) chloride hexahydrate (FeCl3 × 6H2O, Chempur, Piekary Śląskie, Poland) at 10:1:1 (v/v/v). The FRAP reagent (190 μL) and 1 mM of tested compound (10 μL) was added next to each well, mixed and incubated for 30 min. The absorbance was measured using a microplate reader EnSpire (PerkinElmer, Waltham, MA USA) at 593 nm. AA (1 mM, AMARA, Kraków, Poland) was used as the reference antioxidant. The results were expressed as % of ascorbic acid activity (%AAA). Analyses were performed in triplicate. • ORAC-FL

For the next series, the system named is SH-SY5Y cells. The series can be described thus: ROS assay (DCFH-DA), H2O2-induced ROS accumulation. The following applies: compound 50 µM, 500 µM H2O2, 3 h. Format: cell-based, human. Here is the method: (§1) All cell culture protocols and assay conditions were applied as we reported previously. SH-SY5Y (ATCC® CRL-2266™) cell line was purchased from ATCC (Manassas, VA, USA). IMR-32 (ATCC® CCL-127™) cell line was kindly provided by the Department of Oncogenomics, Academisch Medisch Centrum, Amsterdam, Holland. Before each test SH-SY5Y or IMR-32 cells were seeded in 96-well plates with transparent bottom at a concentration of 2.5 × 10^4 cells/well in 100 μL of respective cell culture medium and cultured for 24 h to reach 70% confluence. • Cell Viability
During this assay SH-SY5Y cells were preincubated first for 1 h with 250 μM solution of DCFH-DA (Sigma-Aldrich, Inc., St. Louis, MO, USA) in HBSS buffer. After DCFH-DA was removed, cells were washed with HBSS and incubated next for 1 h with 50 μM of compound 1 or 8. Next, the H2O2 was added at final concentration 500 μM. After 3 h of incubation, the fluorescence was measured using a microplate reader EnSpire (PerkinElmer, Waltham, MA, USA) with an excitation wavelength of 486 nm and emission wavelength of 530 nm. All measurements were performed in triplicate and results are shown as mean ± SD.

The subject of series [2] is SH-SY5Y neuroblastoma cells. The series can be described thus: cell viability, MTS assay. The format is cell-based, human. The following applies: 24 h incubation, 1–100 µM. How it is done:
as §1
(§2) The CellTiter 96® AQueous Non-Radioactive Cell Proliferation Assay was purchased from Promega (Madison, WI, USA). After 24 h of cells incubation with compound 1 or 8 in the concentrations range 1–100 µM the MTS-based labeling mixture was added to each well and cells were incubated under the same conditions for 2–3 h. The absorbance was measured using a microplate reader EnSpire (PerkinElmer, Waltham, MA, USA) at 490 nm. All measurements were performed in triplicate and results are shown as mean ± SD. • Lactate Dehydrogenase Test
Background: Tetrazolium assays rely on reduction of a dye to a coloured formazan, in cell work by metabolically active cells.

In series [3] the test system is IMR-32 neuroblastoma cells. The series can be described thus: cell viability, MTS assay. The format is cell-based, human. Conditions: IMR-32, 24 h incubation, 1–100 µM. How it is done:
as §1, §2

Series [4] can be described thus: oxygen radical absorbance capacity fluorescent (ORAC-FL) assay. The following applies: Trolox equivalent, calculated at 5 µM of compounds and Trolox. How it is done: The ORAC-FL was performed according to procedure described in the literature. The reagents used in this assay, TX, fluorescein and 2,2′-azobis(2-amidinopropane) dihydrochloride (AAPH), were purchased from Sigma-Aldrich, Inc., St. Louis, MO, USA. The prepared ORAC-FL reagent consisted of 0.3 μM of fluorescein and 100 µM of AAPH dissolved in PBS buffer. The compounds and the reference antioxidant TX were tested at the concentration 2.5 µM and the results were compared to the blank in which no antioxidant was present. The assays were performed in black 96-well plates. The fluorescence readings were taken by a microplate reader EnSpire (PerkinElmer, Waltham, MA, USA) every minute for a duration of 240 min. The excitation wavelength was 485 nm and the emission wavelength was 520 nm. The area under the fluorescence decay curve (AUC) was calculated next by GraphPad Prism™ software (version 5.01, San Diego, CA, USA). All measurements were performed in triplicate. The TX equivalent (TE) was calculated next using the following Equation (1):TE = [(AUCsample − AUCblank)/(AUCTX − AUCblank)] × [CTX/Csample](1)

Series [5] concerns SH-SY5Y neuroblastoma cells. Nature of the series: neuroprotection against 6-OHDA-induced LDH release. Format: cell-based, human. Conditions: compound 50 µM. How it is done:
as §1
(§3) CytoTox-ONE™ Homogeneous Membrane Integrity Assay, which based on the LDH release, was purchased from Promega (Madison, WI, USA). SH-SY5Y or IMR-32 cells were seeded in 96-well white plates with transparent bottom. For neuroprotective studies, the cells were preincubated first for 1 h with compound 1, 8 or reference antioxidants AA, TX (all at the concentration of 50 μM) and next the neurotoxin 6-OHDA (Sigma-Aldrich, Inc., St. Louis, MO, USA) was added at final concentration of 50 μM (SH-SY5Y assay) or 200 µM (IMR-32 assay). After 24 h of incubation, the CytoTox-ONE™ was added to each well and the cells were incubated next for 10 min at room temperature. The fluorescence was measured using a microplate reader EnSpire (PerkinElmer, Waltham, MA, USA) with an excitation wavelength of 560 nm and an emission wavelength of 590 nm. All measurements were performed in triplicate and results are shown as mean ± SD. The similar studies were also performed with SH-SY5Y cells injured by 100 μM of 6-OHDA (Figure S1, Supporting Materials). • ROS Assay
(LDH in the medium is a marker of cell lysis.)

The subject of series [6] is IMR-32 neuroblastoma cells. Nature of the series: neuroprotection against 6-OHDA-induced LDH release. Format: cell-based, human. The following applies: IMR-32, compound 50 µM, 1 h pretreatment, 200 µM 6-OHDA, 24 h. Here is the method:
as §1, §3

The target of another series is native AMPA receptors. Conditions: native AMPA receptors, rat brain membranes, mean of three experiments, cited from earlier work.

For orientation: Ki means the equilibrium dissociation constant of an inhibitor or competing ligand from its target.

For `Nc1c(Cl)cc(CC(N)C(=O)O)cc1-c1ccc(O)cc1` (centres unmarked) [Compound 8], on Human MAO-B, the “MAO-B inhibition, screening” value is “No inhibitory activity”. The “FRAP (%AAA)” value in series [1] amounted to 48.19 %AAA. Besides, the “intracellular ROS level” value with SH-SY5Y cells is on record as “statistically significant decrease”. In addition, the cell viability entry in [2] and in [3] was “no influence on cell viability” each time. For the same molecule, the “ORAC (TE)” value in series [4] was 7.56 TE. Further, the “6-OHDA-induced release of LDH (neuroprotection)” value in series [5] (100 µM 6-OHDA) is given as “neuroprotective effect was not observed”; in [5] (1 h pretreatment, 50 µM 6-OHDA, 24 h) it was “no statistically significant neuroprotective effect”; in [6], “no statistically significant neuroprotective effect”. Moreover, at native AMPA receptors, the “[3H]AMPA Ki” value is reported as “lack of detectable AMPA receptor affinity”. Also, the Ki at native AMPA receptors (read-out: [3H]AMPA Ki) is more than 100 µM.

(Values after publication PMC8840081, “Phenylalanine-Based AMPA Receptor Antagonist as the Anticonvulsant Agent with Neuroprotective Activity—In Vitro and In Vivo Studies” (Molecules, 2022).)
